# US20070077215A1, “Administration of phenylfurymethylthiazolidine-2,4-dione or phenylthienymethylthiazolidine-2,4-dione compounds for promoting and/or inducing and/or stimulating the pigmentation of keratinous substances and/or limiting their depigmentation and/or their whitening” (L'OREAL, priority 2005, published 2007)
# pIC50: −log10 of the molar value.
# Biological target: T1, Type-1 15-PGDH (Homo sapiens, UniProt P15428)
# T1 construct: made in house
# T1 sequence (P15428 1-266): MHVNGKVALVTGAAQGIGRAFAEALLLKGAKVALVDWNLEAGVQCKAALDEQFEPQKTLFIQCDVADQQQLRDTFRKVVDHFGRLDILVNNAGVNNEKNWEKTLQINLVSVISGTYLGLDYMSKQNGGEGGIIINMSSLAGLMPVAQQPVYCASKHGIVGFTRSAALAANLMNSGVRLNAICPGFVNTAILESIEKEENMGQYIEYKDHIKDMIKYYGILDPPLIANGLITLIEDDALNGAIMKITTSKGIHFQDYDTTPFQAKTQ
# Experiment: Test on type-1 15-PGDH (spectrophotometric enzyme inhibition)
# Format: biochemical
# Conditions: Tris buffer pH 7.4, 1.5 mM β-NAD, 50 μM prostaglandin E2, 37° C., 340 nm; read-out: IC50dh (concentration that reduces the enzymatic activity of 15-PGDH by 50%)
# Experimental: The enzyme 15-PGDH is obtained as disclosed in FR 02/05067, assigned to the assignee hereof, in suspension in a medium adjusted to a concentration of 0.3 mg/ml and then blocked at −80° C. For the requirements of the test, this suspension is defrosted and stored in ice.
# Furthermore, a 100 mM, pH=7.4, Tris buffer comprising 0.1 mM of dithiothreitol (D5545, Sigma-Aldrich, L'isle D'Abeau Chesne, BP 701, 38297, Saint Quentin Fallavier) 1.5 mM of β-NAD (N6522, Sigma-Aldrich, L'isle D'Abeau Chesne, BP 701, 38297, Saint Quentin Fallavier) and 50 μM of prostaglandin E2 (P4172, Sigma-Aldrich, L'isle D'Abeau Chesne, BP 701, 38297, Saint Quentin Fallavier) is prepared.
# 0.965 ml of this buffer (adjusted beforehand to 37° C.) is introduced into the cell of a spectrophotometer (Perkin-Elmer, Lambda 2) thermostatically controlled at 37° C., the measuring wavelength of which is adjusted to 340 nm. 0.035 ml of enzymatic suspension at 37° C. is introduced into the cell concomitantly with the recording (corresponding to an increase in the optical density at 340 nm). The maximum reaction rate is recorded.
# The test values (comprising compound 1) are compared with the control value (without compound 1); the results shown represent either the percentage of inhibition of the enzymatic activity of 15-PGDH for a given concentration of compound of formula (I) or the concentration at which compound 1 reduces the enzymatic activity of 15-PGDH by 50%, namely IC50dh.
row,Compound,pIC50
1,"O=C1N=C(O)C(Cc2ccc(-c3ccc(C(=O)O)cc3)o2)S1 (stereo not drawn) [Compound 1, 4-{5-[(2,4-dioxo-1,3-thiazolidin-5-yl)methyl]-2-furyl}benzoic acid]",5.52
2,"CCOC(=O)c1cccc(-c2ccc(CC3SC(=O)NC3=O)o2)c1 (stereo not drawn) [Compound 4, Ethyl 3-{5-[(2,4-dioxo-1,3-thiazolidin-5-yl)methyl]-2-furyl}benzoate]",5.34
3,"O=C1NC(=O)C(Cc2ccc(-c3cccc(C(F)(F)F)c3)o2)S1 (stereo not drawn) [Compound 2, 5-[5-(3-(trifluoromethyl)phenyl)fur-2-ylmethyl]-1,3-thiazolidine-2,4-dione]",5.09
4,"O=C1NC(=O)C(Cc2ccc(-c3ccc(C(F)(F)F)cc3)s2)S1 (stereo not drawn) [Compound 5, 5-({5-[4-(trifluoromethyl)phenyl]thien-2-yl}methyl)-1,3-thiazolidine-2,4-dione]",4.75
5,"O=C1NC(=O)C(Cc2ccc(-c3cccc(CO)c3)s2)S1 (stereo not drawn) [Compound 7, 5-({5-[3-(Hydroxymethyl)phenyl]-2-thienyl}methyl)-1,3-thiazolidine-2,4-dione]",4.42
6,"O=C1NC(=O)C(Cc2ccc(-c3cccc(Cl)c3)o2)S1 (stereo not drawn) [Compound 3, 5-{[5-(3-chlorophenyl)-2-furyl]methyl}-1,3-thiazolidine-2,4-dione]",5.28
